Assay results as given in ChEMBL document CHEMBL4385660, “5-Chloro-2-thiophenyl-1,2,3-triazolylmethyldihydroquinolines as dual inhibitors of Mycobacterium tuberculosis and influenza virus: Synthesis and evaluation” (Bioorg Med Chem Lett, 2019).
≈ marks a conversion by molar mass, not a printed value.

How the values were obtained:
[1] = test system: Mycobacterium tuberculosis; assay: Antimycobacterial against Mycobacterium tuberculosis; format: functional
Influenza A virus = assay: Antiviral activity against Influenza A virus (A/Puerto Rico/8/1934(H1N1)) infected in MDCK cells assessed as reduction in virus titer using cells pre-treated with compound followed by virus infection for 24 hrs by hemagglutination test; format: functional, organism-based
[2] = Selectivity index, ratio of CC50 for cytotoxicity in MDCK cells to IC50 for antiviral activity against Influenza A virus (A/Puerto Rico/8/1934(H1N1)) infected in MDCK cells; format: toxicity, cell-based; conditions: dog, read-out: Ratio CC50/IC50
[3] = Cytotoxicity in MDCK cells assessed as reduction in cell viability incubated for 48 hrs by MTT assay; format: cell-based, Canis lupus familiaris; conditions: dog
[4] = test system: Mycobacterium tuberculosis; assay: Antimycobacterial against Mycobacterium tuberculosis H37Rv incubated for 7 days by MABA assay; format: functional; conditions: 168 h

CN(C)CCc1ccc(-c2cc3cc(Br)ccc3nc2OCc2cccc3ccccc23)cc1
MIC [1]: 0.43 µg/mL (≈ 0.841 µM)

Fc1ccc(-c2cn(CC3=C(Cl)c4ccc(-c5cccs5)nc4CC3)nn2)cc1
IC50 (Influenza A virus): 80 µg/mL (≈ 189 µM) | selectivity ratio [2]: 1 | CC50 at 48 h [3]: 100 µg/mL (≈ 236 µM) | MIC [4]: 12.5 µg/mL (≈ 29.6 µM)

O=C1c2ccccc2C(=O)N1Cc1cn(CC2=C(Cl)c3ccc(-c4cccs4)nc3CC2)nn1
IC50 (Influenza A virus): 200 µg/mL (≈ 410 µM) | selectivity ratio [2]: 2 | CC50 at 48 h [3]: > 300 µg/mL | MIC [4]: 25 µg/mL (≈ 51.2 µM)

ClC1=C(Cn2cc(C3CC3)nn2)CCc2nc(-c3cccs3)ccc21
IC50 (Influenza A virus): > 300 µg/mL | selectivity ratio [2]: 1 | CC50 at 48 h [3]: > 300 µg/mL | MIC [4]: 6.25 µg/mL (≈ 16.9 µM)

FC(F)(F)c1ccccc1-c1cn(CC2=C(Cl)c3ccc(-c4cccs4)nc3CC2)nn1
IC50 (Influenza A virus): 160 µg/mL (≈ 338 µM) | selectivity ratio [2]: 2 | CC50 at 48 h [3]: > 300 µg/mL | MIC [4]: 12.5 µg/mL (≈ 26.4 µM)

Fc1ccc(-c2cn(CC3=C(Cl)c4ccc(-c5cccs5)nc4CC3)nn2)c(F)c1
IC50 (Influenza A virus): 165 µg/mL (≈ 374 µM) | selectivity ratio [2]: 1 | CC50 at 48 h [3]: 188 µg/mL (≈ 426 µM) | MIC [4]: 25 µg/mL (≈ 56.7 µM)

FC(F)(F)c1cc(-c2cn(CC3=C(Cl)c4ccc(-c5cccs5)nc4CC3)nn2)cc(C(F)(F)F)c1
IC50 (Influenza A virus): > 30 µg/mL | selectivity ratio [2]: 1 | CC50 at 48 h [3]: 35 µg/mL (≈ 64.7 µM) | MIC [4]: 25 µg/mL (≈ 46.2 µM)

CC(C)(C)c1ccc(-c2cn(CC3=C(Cl)c4ccc(-c5cccs5)nc4CC3)nn2)cc1
IC50 (Influenza A virus): 64 µg/mL (≈ 139 µM) | selectivity ratio [2]: 3 | CC50 at 48 h [3]: 172 µg/mL (≈ 373 µM) | MIC [4]: 3.12 µg/mL (≈ 6.77 µM)

CC(C)(C)c1nn(-c2cc(Cl)cc(Cl)c2OCc2cn(CC3=C(Cl)c4ccc(-c5cccs5)nc4CC3)nn2)c(=O)o1
IC50 (Influenza A virus): > 300 µg/mL | selectivity ratio [2]: 1 | CC50 at 48 h [3]: > 300 µg/mL | MIC [4]: 25 µg/mL (≈ 38.8 µM)

CCCCCc1cn(CC2=C(Cl)c3ccc(-c4cccs4)nc3CC2)nn1
IC50 (Influenza A virus): 17 µg/mL (≈ 42.6 µM) | selectivity ratio [2]: 3 | CC50 at 48 h [3]: 50 µg/mL (≈ 125 µM) | MIC [4]: 6.25 µg/mL (≈ 15.7 µM)

ClC1=C(Cn2cc(-c3ccsc3)nn2)CCc2nc(-c3cccs3)ccc21
IC50 (Influenza A virus): 195 µg/mL (≈ 475 µM) | selectivity ratio [2]: 15 | CC50 at 48 h [3]: > 300 µg/mL | MIC [4]: 25 µg/mL (≈ 60.8 µM)

O=[N+]([O-])c1ccc(-c2cn(CC3=C(Cl)c4ccc(-c5cccs5)nc4CC3)nn2)cc1
IC50 (Influenza A virus): > 30 µg/mL | selectivity ratio [2]: 1 | CC50 at 48 h [3]: 40 µg/mL (≈ 88.9 µM) | MIC [4]: 12.5 µg/mL (≈ 27.8 µM)

CN(C)Cc1ccc(-c2cc3cc(Br)ccc3nc2OCc2ccncc2)cc1
MIC [1]: 0.43 µg/mL (≈ 0.959 µM)

ClC1=C(Cn2cc(-c3ccc(Cl)c(Cl)c3)nn2)CCc2nc(-c3cccs3)ccc21
IC50 (Influenza A virus): 26 µg/mL (≈ 54.9 µM) | selectivity ratio [2]: 12 | CC50 at 48 h [3]: > 300 µg/mL | MIC [4]: 25 µg/mL (≈ 52.8 µM)

ClC1=C(Cn2cc(-c3cc4ccccc4c4ccccc34)nn2)CCc2nc(-c3cccs3)ccc21
IC50 (Influenza A virus): > 300 µg/mL | selectivity ratio [2]: 1 | CC50 at 48 h [3]: > 300 µg/mL | MIC [4]: 25 µg/mL (≈ 49.5 µM)

COc1ccc(-c2cn(CC3=C(Cl)c4ccc(-c5cccs5)nc4CC3)nn2)cc1
IC50 (Influenza A virus): 160 µg/mL (≈ 368 µM) | selectivity ratio [2]: 2 | CC50 at 48 h [3]: > 300 µg/mL | MIC [4]: 25 µg/mL (≈ 57.5 µM)

FC(F)(F)Oc1ccc(-c2cn(CC3=C(Cl)c4ccc(-c5cccs5)nc4CC3)nn2)cc1
IC50 (Influenza A virus): 65 µg/mL (≈ 133 µM) | selectivity ratio [2]: 5 | CC50 at 48 h [3]: > 300 µg/mL | MIC [4]: 25 µg/mL (≈ 51.1 µM)

O=C(O)c1cn(C2CC2)c2cc(N3CCNCC3)c(F)cc2c1=O [CIPROFLOXACIN]
MIC [4]: 1.56 µg/mL (≈ 4.71 µM)

CC[C@@H](CO)NCCN[C@@H](CC)CO [ETHAMBUTOL]
MIC [4]: 3.13 µg/mL (≈ 15.3 µM)

NNC(=O)c1ccncc1 [ISONIAZID]
MIC [4]: 0.1 µg/mL (≈ 0.729 µM)

CCC(CC)O[C@@H]1C=C(C(=O)O)C[C@H](N)[C@H]1NC(C)=O [OSELTAMIVIR CARBOXYLATE]
IC50 (Influenza A virus): 0.06 µg/mL (≈ 0.211 µM) | selectivity ratio [2]: > 500 | CC50 at 48 h [3]: > 30 µg/mL

CO[C@H]1/C=C/O[C@@]2(C)Oc3c(C)c(O)c4c(O)c(c(/C=N/N5CCN(C)CC5)c(O)c4c3C2=O)NC(=O)/C(C)=C\C=C\[C@H](C)[C@H](O)[C@@H](C)[C@@H](O)[C@@H](C)[C@H](OC(C)=O)[C@@H]1C [RIFAMPIN]
MIC [4]: 0.2 µg/mL (≈ 0.243 µM)

CC(N)C12CC3CC(CC(C3)C1)C2 (configuration not stated) [RIMANTADINE]
IC50 (Influenza A virus): 10 µg/mL (≈ 55.8 µM) | selectivity ratio [2]: 6 | CC50 at 48 h [3]: 62 µg/mL (≈ 346 µM)
